Measurements as given in patent US4835185A, “Immunomodulator for improving commercial performance of domestic animals” (Iowa State University Research Foundation, Inc., priority 1987, dated 1989).

How the values were obtained:
white blood cells = assay: White blood cell number and differential, cattle (experiment 3); format: in vivo, castrated male cattle
Experimental: In experiment 3 72 castrated male cattle were allotted to 12 pens of 6 animals each. Three pens were assigned to each treatment: 0.0% KIC, 0.02% KIC, 0.07% KIC, and 0.20% KIC. Animals were fed ad libitum the respective diets for 6 weeks. At the end of the 6-233k periods, 100-ml blood samples were collected from each animal, and lymphocyte and neutrophil function were evaluated.
The basal cattle diet (experiment 3) consisted of 49% corn, 24% corn-cobs, 18% soybean meal, 7% molasses, 1.3% limestone, 0.25% dicalcium phosphate, 0.23% salt, 0.02% trace-mineral premix, and 0.11% vitamin premix. The basal diet was supplemented with w/w 0.05% control pellets, 0.04% KIC pellets, or 0.4% KIC pellets. All animals consumed ~10 kg of feed per day, resulting in ~0, 2, 7, or 20 g of Ca-KIC consumed per animal per day or 0, 0.02, 0.07, and 0.2% KIC of the total diet.
KIC pellets were made by mixing zein, ethanol, KIC, limestone, bentonite, and water in a ratio of […]. This mixture was extruded through a die of 15 mm directly into a vat of liquid nitrogen. The shattered pellets were spread out and allowed to air-dry for 2 days. The pellets were coated with zein (2% w/w) by spraying with a 30% zein solution made in 80% ethanol. The pellets again were air-dryed. Control pellets were made similarly to the KIC pellets except that the mixture was zein, limestone, ethanol, bentonite, and water in a ratio of 12:12:7.5:2.7:1. When KIC pellets were placed in the rumen (nylon bag technique), […] of the KIC added was present in the bags after 24 hr of rumen fermentation. It was estimated that uncoated KIC was 95% degraded in the rumen.
Blood was collected by jugular venapuncture into acid-citrate-dextrose anticoagulant. Lymphocytes and neutrophils were isolated, and lymphocyte blastogenesis and neutrophil function evaluated. KIC was obtained from SOBAC, Paris, France. Zein was purchased from Freeman Industries, Tuckahoe, NY. Each experiment was statistically analyzed by analysis of variance. In sheep experiments, individual animals were the experimental units, whereas pen means were analyzed in the cattle experiment.
^2 Total white blood cell number (WBC) is the cells per mm^3.

neutrophils = assay: Neutrophil function (experiments 1 to 3); format: cell-based, sheep and cattle; conditions: any experiment
Experimental: A study was conducted to determine if KIC administration can alter white blood cell function, specifically T lymphocyte function, in growing sheep and cattle. Eighteen medium-framed crossbred male lambs were used in experiment 1. Lambs were randomly assigned to either a control diet (n=10) or a diet supplemented with 1% KIC (n=8). Animals were fed ad libitum in individual cages. At 100 and 108 days of treatment, 50-ml blood samples were collected for lymphocyte and neutrophil function tests. In experiment 2, 19 intact crossbred male lambs were randomly assigned to either a saline treatment group (n=9) or a KIC treatment group (n=10). Control lambs were injected with 50 ml of a saline solution, and KIC treated lambs were injected with 50 ml of a 5% solution of KIC (sodium salt) daily (~2.5 g KIC/day). All injections were made intraperitoneally in the right posterior abdominal region after disinfection of the area. […] At the end of the 6-233k periods, 100-ml blood samples were collected from each animal, and lymphocyte and neutrophil function were evaluated. […] Lymphocytes and neutrophils were isolated, and lymphocyte blastogenesis and neutrophil function evaluated. […] Each experiment was statistically analyzed by analysis of variance. In sheep experiments, individual animals were the experimental units, whereas pen means were analyzed in the cattle experiment.

[1] = Feedlot steers: death, sickness, condemned livers; format: in vivo, steers (cattle)
Source text: Seventy-two medium-frame steers, with an average weight of 578 lbs., were allotted to 12 pens of 6 animals each. A common basal diet was fed ad libitum to all cattle. This consisted of 48.9% cracked corn, 24.4% ground corn cobs, 17.8% expeller Soybean meal, 7.0% molasses (liquid), 1.3% limestone, 0.25% dicalcium phosphate, 2% salt, 0.02% trace mineral premix, and 0.1% vitamin A premix for the first 58 days of the experiment, and was changed to 54.3% cracked corn and 12.8% expeller soybean meal for the remaining 103 days of the experiment. Three pens were assigned to each treatment. The treatments consisted of four levels of Ca-KIC in a pelleted supplement: 0%, 0.02%, 0.07%, and 0.20% of the basal diet (0.05% control pellets, 0.04% KIC pellets, 0.14% KIC pellets, and 0.40% KIC pellets). The pellets were preweighted and top-dressed on the basal diet twice daily. After 58 days, the cattle on the 0.20% KIC were removed from the experiment. The cattle were not implanted with a growth promotant nor were ionophores included in the diet. The cattle were placed in the feedlot and fed a growing ration for 5 weeks prior to the start of the experiment. The cattle were weighed on 2 consecutive days at the beginning and end of the experiment, and every 14 days during the trial. […] Loin eye area and fat thickness over the loin were measured on each carcass. […]

Compound: CC(C)CC(=O)C(=O)O [KIC, alpha-ketoisocaproate]
- % SEG (white blood cells; Exp. 3, oral coated 0.02% KIC (control 28)): 29% of Total WBC
- % LYM (white blood cells; Exp. 3, oral coated 0.02% KIC (control 52)): 63% of Total WBC
- % EOS (white blood cells; Exp. 3, oral coated 0.02% KIC (control .7)): .9% of Total WBC
- % SEG (white blood cells; Exp. 3, oral coated 0.07% KIC (control 28)): 24% of Total WBC
- % LYM (white blood cells; Exp. 3, oral coated 0.07% KIC (control 52)): 69% of Total WBC
- % EOS (white blood cells; Exp. 3, oral coated 0.07% KIC (control .7)): .7% of Total WBC
- % SEG (white blood cells; Exp. 3, oral coated 0.20% KIC (control 28)): 24% of Total WBC
- % LYM (white blood cells; Exp. 3, oral coated 0.20% KIC (control 52)): 52% of Total WBC
- % EOS (white blood cells; Exp. 3, oral coated 0.20% KIC (control .7)): 1.1% of Total WBC
- antibody-dependent cell-mediated cytotoxicity (neutrophils): did not alter
- animals that died or were treated for sickness ([1]; KIC-treated groups (control: one died, one treated)): no animals
- condemned liver ([1]; bovine, in vivo): one
